From ChEMBL document CHEMBL1165867, “Synthesis, structure and structure-activity relationship analysis of caffeic acid amides as potential antimicrobials” (2010) come the findings set out here.

What all share (assay): microbe, parasite or virus in culture
Holding throughout (assay type): functional

For experiment [1], the system named is Aspergillus niger. The note with it: ATCC 16404, 48 h.
Experiment [2] has as its system Bacillus subtilis. The note with it: ATCC 6633, 24 h.
Experiment [3] relates to Pseudomonas fluorescens. Conditions: ATCC 13525, 24 h.
In experiment [4] the test system is Staphylococcus aureus. The note with it: ATCC 6538, 24 h.
In experiment [5] the test system is Candida albicans. Conditions: ATCC 10231, 48 h.
Experiment [6] has as its system Escherichia coli. Conditions: ATCC 35218, 24 h.
In experiment [7] the test system is Trichophyton rubrum. The note with it: ATCC 10218, 48 h.

Converted amounts (≈) assume the structure as drawn. Where only a bound is given, the exact number is not on record here.

In the case of `O=C(/C=C/c1ccc(O)c(O)c1)Nc1ccc(F)cc1`, the MIC in experiment [1] was above 50 µg/mL; in experiment [2] it was 7.95 µg/mL (≈ 29.1 µM); in experiment [3], above 50 µg/mL; in experiment [4] it was above 50 µg/mL; in experiment [5], above 50 µg/mL; in experiment [6] it was above 50 µg/mL. For the same compound, in experiment [7], the MIC was above 50 µg/mL.

For the compound `COc1cccc(NC(=O)/C=C/c2ccc(O)c(O)c2)c1`, the MIC in experiment [2] is 50 µg/mL (≈ 175 µM); in experiment [3], above 50 µg/mL; in experiment [4], above 50 µg/mL; in experiment [5] it was 44.7 µg/mL (≈ 157 µM).

For the compound `COc1ccc(NC(=O)/C=C/c2ccc(O)c(O)c2)cc1`, the MIC in experiment [1] was above 50 µg/mL; in experiment [2], 3.12 µg/mL (≈ 10.9 µM); in experiment [3] it was above 50 µg/mL; in experiment [4], 50 µg/mL (≈ 175 µM); in experiment [5], 42.8 µg/mL (≈ 150 µM); in experiment [6], above 50 µg/mL. For the same compound, the MIC in experiment [7] is above 50 µg/mL.

For the compound `CCNC(=O)/C=C/c1ccc(O)cc1`, the MIC was above 50 µg/mL in experiment [2], above 50 µg/mL in experiment [3], 45.4 µg/mL (≈ 237 µM) in experiment [4] and 50 µg/mL (≈ 261 µM) in experiment [5].

Consider `O=C(/C=C/c1ccc(O)c(O)c1)Nc1cccc([N+](=O)[O-])c1`, for which the MIC in experiment [2], in experiment [3], in experiment [4] and in experiment [5] was above 50 µg/mL each time.

Consider `O=C(/C=C/c1ccc(O)c(O)c1)Nc1ccc([N+](=O)[O-])cc1`, for which the MIC is above 50 µg/mL in experiment [1]; 15.5 µg/mL (≈ 51.6 µM) in experiment [2]; above 50 µg/mL in experiment [3]; above 50 µg/mL in experiment [4]; 49.4 µg/mL (≈ 165 µM) in experiment [5]; above 50 µg/mL in experiment [6]. The same compound yielded an MIC in experiment [7] above 50 µg/mL.

Turning to `O=C(/C=C/c1ccc(O)c(O)c1)N(c1ccccc1)c1ccccc1`, the MIC in experiment [2], in experiment [3], in experiment [4] and in experiment [5] was above 50 µg/mL in each case.

As to `O=C(/C=C/c1ccc(O)c(O)c1)Nc1ccccc1[N+](=O)[O-]`, the MIC in experiment [2], in experiment [3], in experiment [4] and in experiment [5] was above 50 µg/mL in each case.

For `O=C(/C=C/c1ccc(O)c(O)c1)Nc1ccccc1Cl`, the MIC was 45.8 µg/mL (≈ 158 µM) in experiment [2], 41.2 µg/mL (≈ 142 µM) in experiment [3], above 50 µg/mL in experiment [4] and 42.8 µg/mL (≈ 148 µM) in experiment [5].

`O=C(/C=C/c1ccc(O)c(O)c1)Nc1ccccc1Br`: the MIC is 49.5 µg/mL (≈ 148 µM) in experiment [2], 42.2 µg/mL (≈ 126 µM) in experiment [3], above 50 µg/mL in experiment [4] and 27.5 µg/mL (≈ 82.3 µM) in experiment [5].

As to `O=C(/C=C/c1ccc(O)c(O)c1)Nc1cccc(F)c1`, the MIC in experiment [2] is 46.7 µg/mL (≈ 171 µM); in experiment [3], above 50 µg/mL; in experiment [4], above 50 µg/mL; in experiment [5] it was above 50 µg/mL.

With `O=C(/C=C/c1ccc(O)c(O)c1)Nc1cccc(Cl)c1`, the MIC is 50 µg/mL (≈ 173 µM) in experiment [2], above 50 µg/mL in experiment [3], 49.2 µg/mL (≈ 170 µM) in experiment [4] and above 50 µg/mL in experiment [5].

For `O=C(/C=C/c1ccc(O)c(O)c1)Nc1cccc(Br)c1`, the MIC in experiment [2] is 50 µg/mL (≈ 150 µM); in experiment [3] it was above 50 µg/mL; in experiment [4], above 50 µg/mL; in experiment [5] it was above 50 µg/mL.

Consider `Cc1ccc(NC(=O)/C=C/c2ccc(O)c(O)c2)cc1`, for which the MIC in experiment [1] was above 50 µg/mL; in experiment [2], 1.18 µg/mL (≈ 4.38 µM); in experiment [3], 42.2 µg/mL (≈ 157 µM); in experiment [4] it was above 50 µg/mL; in experiment [5], above 50 µg/mL; in experiment [6] it was above 50 µg/mL. This compound also displayed an MIC in experiment [7] above 50 µg/mL.

Consider `O=C(/C=C/c1ccc(O)c(O)c1)Nc1ccc(Cl)cc1`, for which the MIC is above 50 µg/mL in experiment [1]; 6.25 µg/mL (≈ 21.6 µM) in experiment [2]; 50 µg/mL (≈ 173 µM) in experiment [3]; 46.8 µg/mL (≈ 162 µM) in experiment [4]; above 50 µg/mL in experiment [5]; above 50 µg/mL in experiment [6]. For the same compound, the MIC in experiment [7] is above 50 µg/mL.

For the compound `O=C(/C=C/c1ccc(O)c(O)c1)Nc1ccc(Br)cc1`, the MIC in experiment [1] is above 50 µg/mL; in experiment [2], 3.89 µg/mL (≈ 11.6 µM); in experiment [3], 50 µg/mL (≈ 150 µM); in experiment [4] it was above 50 µg/mL; in experiment [5] it was above 50 µg/mL; in experiment [6] it was above 50 µg/mL. Also, in experiment [7], the MIC was above 50 µg/mL.

For `Cc1ccccc1NC(=O)/C=C/c1ccc(O)c(O)c1`, the MIC is 35 µg/mL (≈ 130 µM) in experiment [2], 42.5 µg/mL (≈ 158 µM) in experiment [3], above 50 µg/mL in experiment [4] and above 50 µg/mL in experiment [5].

With `Cc1cccc(NC(=O)/C=C/c2ccc(O)c(O)c2)c1`, the MIC is 40.2 µg/mL (≈ 149 µM) in experiment [2], 38.8 µg/mL (≈ 144 µM) in experiment [3], 45.6 µg/mL (≈ 169 µM) in experiment [4] and above 50 µg/mL in experiment [5].

Consider `O=C(/C=C/c1ccc(O)c(O)c1)Nc1ccccc1F`, for which the MIC in experiment [2] is 50 µg/mL (≈ 183 µM); in experiment [3], above 50 µg/mL; in experiment [4], above 50 µg/mL; in experiment [5], 33.3 µg/mL (≈ 122 µM).

Take `COc1ccccc1NC(=O)/C=C/c1ccc(O)c(O)c1`: the MIC in experiment [2] was 39.8 µg/mL (≈ 140 µM); in experiment [3] it was 13.2 µg/mL (≈ 46.3 µM); in experiment [4] it was 47.4 µg/mL (≈ 166 µM); in experiment [5], above 50 µg/mL.

For `CN(C(=O)/C=C/c1ccc(O)c(O)c1)c1ccccc1`, the MIC in experiment [2], in experiment [3], in experiment [4] and in experiment [5] was above 50 µg/mL in each case.

Consider `O=C(/C=C/c1ccc(O)c(O)c1)Nc1ccccc1`, for which the MIC is 28.4 µg/mL (≈ 111 µM) in experiment [2], above 50 µg/mL in experiment [3], 41.5 µg/mL (≈ 163 µM) in experiment [4] and 50 µg/mL (≈ 196 µM) in experiment [5].

For `CCNC(=O)/C=C/c1ccc(O)c(O)c1`, the MIC in experiment [2], in experiment [3], in experiment [4] and in experiment [5] was above 50 µg/mL each time.

On to `CCN(CC)C(=O)/C=C/c1ccc(O)c(O)c1`, for which the MIC in experiment [2], in experiment [3], in experiment [4] and in experiment [5] was above 50 µg/mL throughout.

As for `O=C(O)/C=C/c1ccc(O)c(O)c1` [CAFFEIC ACID], the MIC in experiment [2], in experiment [3], in experiment [4] and in experiment [5] was above 50 µg/mL each time.

On to `O=C(O)/C=C/c1ccc(O)cc1` [COUMARIC ACID], for which the MIC in experiment [2], in experiment [3], in experiment [4] and in experiment [5] was above 50 µg/mL in each case.

`NC[C@H]1O[C@H](O[C@H]2[C@H](O)[C@@H](O[C@H]3O[C@H](CO)[C@@H](O)[C@H](N)[C@H]3O)[C@H](N)C[C@@H]2N)[C@H](O)[C@@H](O)[C@@H]1O` [KANAMYCIN]: the MIC in experiment [2] came out at 0.39 µg/mL (≈ 0.805 µM); in experiment [3], 5.08 µg/mL (≈ 10.5 µM); in experiment [4], 1.28 µg/mL (≈ 2.64 µM).

For the compound `CC1(C)S[C@@H]2[C@H](NC(=O)Cc3ccccc3)C(=O)N2[C@H]1C(=O)O` [PENICILLIN G], the MIC in experiment [2] turned out to be 0.78 µg/mL (≈ 2.33 µM); in experiment [4] it was 1.39 µg/mL (≈ 4.16 µM).
